Measured values taken from patent US9546156B2, “N-bicyclic aryl,N'-pyrazolyl urea, thiourea, guanidine cyanoguanidine compounds as TrkA kinase inhibitors” (Array BioPharma Inc., priority 2012, dated 2017).

Columns and labels:
Assay in all cases: Off-target kinase profiling (KinaseProfiler)
Type in all cases: biochemical
Settings in all cases: 10 μM, ATP near Km
[1] = target: T1, MSK1 (Homo sapiens, UniProt O75582)
T1 construct: purchased Millipore, Inc. (KinaseProfiler service)
In short: (§1)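 Each enzyme was challenged with 10 μM inhibitor in the presence of ATP at roughly its Km. Two replicates were run, and their average is reported relative to an uninhibited control.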

[2] = target: T2, GSK3beta (Homo sapiens, UniProt P49841)
T2 construct: purchased Millipore, Inc. (KinaseProfiler service)
In short: as §1

[3] = target: T3, PRKG1alpha (Homo sapiens, UniProt Q13976)
T3 construct: purchased Millipore, Inc. (KinaseProfiler service)
In short: as §1

[4] = target: T4, PDGFRalpha (Homo sapiens, UniProt P16234)
T4 construct: purchased Millipore, Inc. (KinaseProfiler service)
In short: as §1

[5] = target: T5, MAPKAP-K3 (Homo sapiens, UniProt Q16644)
T5 construct: purchased Millipore, Inc. (KinaseProfiler service)
In short: as §1

[6] = target: T6, CK2alpha2 (Homo sapiens, UniProt P19784)
T6 construct: purchased Millipore, Inc. (KinaseProfiler service)
In short: as §1

[7] = target: T7, MAPKAP-K5 (Homo sapiens, UniProt Q8IW41)
T7 construct: purchased Millipore, Inc. (KinaseProfiler service)
In short: as §1

[8] = target: T8, SRPK2 (Homo sapiens, UniProt P78362)
T8 construct: purchased Millipore, Inc. (KinaseProfiler service)
In short: as §1

[9] = target: T9, WNK3 (Homo sapiens, UniProt Q9BYP7)
T9 construct: purchased Millipore, Inc. (KinaseProfiler service)
In short: as §1

[10] = target: T10, PKAC-alpha (Homo sapiens, UniProt P17612)
T10 construct: purchased Millipore, Inc. (KinaseProfiler service)
In short: as §1

[11] = target: T11, CLK2 (Homo sapiens, UniProt P49760)
T11 construct: purchased Millipore, Inc. (KinaseProfiler service)
In short: as §1

[12] = target: T12, MRCKalpha (Homo sapiens, UniProt Q5VT25)
T12 construct: purchased Millipore, Inc. (KinaseProfiler service)
In short: as §1

[13] = target: T13, Fyn (Homo sapiens, UniProt P06241)
T13 construct: purchased Millipore, Inc. (KinaseProfiler service)
In short: as §1

[14] = target: T14, GRK6 (Homo sapiens, UniProt P43250)
T14 construct: purchased Millipore, Inc. (KinaseProfiler service)
In short: as §1

[15] = target: T15, MST3 (Homo sapiens, UniProt Q9Y6E0)
T15 construct: purchased Millipore, Inc. (KinaseProfiler service)
In short: as §1

[16] = target: T16, CLK3 (Homo sapiens, UniProt P49761)
T16 construct: purchased Millipore, Inc. (KinaseProfiler service)
In short: as §1

[17] = target: T17, ITK (Homo sapiens, UniProt Q08881)
T17 construct: purchased Millipore, Inc. (KinaseProfiler service)
In short: as §1

[18] = target: T18, GSK3alpha (Homo sapiens, UniProt P49840)
T18 construct: purchased Millipore, Inc. (KinaseProfiler service)
In short: as §1

[19] = target: T19, LOK (Homo sapiens, UniProt O94804)
T19 construct: purchased Millipore, Inc. (KinaseProfiler service)
In short: as §1

[20] = target: T20, SIK (Homo sapiens, UniProt P57059)
T20 construct: purchased Millipore, Inc. (KinaseProfiler service)
In short: as §1

[21] = target: T21, EphB4 (Homo sapiens, UniProt P54760)
T21 construct: purchased Millipore, Inc. (KinaseProfiler service)
In short: as §1

[22] = target: T22, TSSK1 (Homo sapiens, UniProt Q9BXA7)
T22 construct: purchased Millipore, Inc. (KinaseProfiler service)
In short: as §1

[23] = target: T23, TAO3 (Homo sapiens, UniProt Q9H2K8)
T23 construct: purchased Millipore, Inc. (KinaseProfiler service)
In short: as §1

[24] = target: T24, Ros (Homo sapiens, UniProt P08922)
T24 construct: purchased Millipore, Inc. (KinaseProfiler service)
In short: as §1

[25] = target: T25, IKKalpha (Homo sapiens, UniProt O15111)
T25 construct: purchased Millipore, Inc. (KinaseProfiler service)
In short: as §1

[26] = target: T26, PKCtheta (Homo sapiens, UniProt Q04759)
T26 construct: purchased Millipore, Inc. (KinaseProfiler service)
In short: as §1

[27] = target: T27, WNK2 (Homo sapiens, UniProt Q9Y3S1)
T27 construct: purchased Millipore, Inc. (KinaseProfiler service)
In short: as §1

[28] = target: T28, BrSK1 (Homo sapiens, UniProt Q8TDC3)
T28 construct: purchased Millipore, Inc. (KinaseProfiler service)
In short: as §1

[29] = target: T29, GRK5 (Homo sapiens, UniProt P34947)
T29 construct: purchased Millipore, Inc. (KinaseProfiler service)
In short: as §1

[30] = target: T30, CSK (Homo sapiens, UniProt P41240)
T30 construct: purchased Millipore, Inc. (KinaseProfiler service)
In short: as §1

[31] = target: T31, FAK2 (Homo sapiens, UniProt Q14289)
T31 construct: purchased Millipore, Inc. (KinaseProfiler service)
In short: as §1

[32] = target: T32, JAK3 (Homo sapiens, UniProt P52333)
T32 construct: purchased Millipore, Inc. (KinaseProfiler service)
In short: as §1

[33] = target: T33, CK1delta (Homo sapiens, UniProt P48730)
T33 construct: purchased Millipore, Inc. (KinaseProfiler service)
In short: as §1

[34] = target: T34, MST1 (Homo sapiens, UniProt Q13043)
T34 construct: purchased Millipore, Inc. (KinaseProfiler service)
In short: as §1

[35] = target: T35, TSSK2 (Homo sapiens, UniProt Q96PF2)
T35 construct: purchased Millipore, Inc. (KinaseProfiler service)
In short: as §1

[36] = target: T36, TBK1 (Homo sapiens, UniProt Q9UHD2)
T36 construct: purchased Millipore, Inc. (KinaseProfiler service)
In short: as §1

[37] = target: T37, NEK2 (Homo sapiens, UniProt P51955)
T37 construct: purchased Millipore, Inc. (KinaseProfiler service)
In short: as §1

[38] = target: T38, ULK2 (Homo sapiens, UniProt Q8IYT8)
T38 construct: purchased Millipore, Inc. (KinaseProfiler service)
In short: as §1

[39] = target: T39, Plk3 (Homo sapiens, UniProt Q9H4B4)
T39 construct: purchased Millipore, Inc. (KinaseProfiler service)
In short: as §1

[40] = target: T40, PASK (Homo sapiens, UniProt Q96RG2)
T40 construct: purchased Millipore, Inc. (KinaseProfiler service)
In short: as §1

[41] = target: T41, Rsk1 (Homo sapiens, UniProt Q15418)
T41 construct: purchased Millipore, Inc. (KinaseProfiler service)
In short: as §1

[42] = target: T42, EphA2 (Homo sapiens, UniProt P29317)
T42 construct: purchased Millipore, Inc. (KinaseProfiler service)
In short: as §1

T31 sequence (Q14289 whole entry): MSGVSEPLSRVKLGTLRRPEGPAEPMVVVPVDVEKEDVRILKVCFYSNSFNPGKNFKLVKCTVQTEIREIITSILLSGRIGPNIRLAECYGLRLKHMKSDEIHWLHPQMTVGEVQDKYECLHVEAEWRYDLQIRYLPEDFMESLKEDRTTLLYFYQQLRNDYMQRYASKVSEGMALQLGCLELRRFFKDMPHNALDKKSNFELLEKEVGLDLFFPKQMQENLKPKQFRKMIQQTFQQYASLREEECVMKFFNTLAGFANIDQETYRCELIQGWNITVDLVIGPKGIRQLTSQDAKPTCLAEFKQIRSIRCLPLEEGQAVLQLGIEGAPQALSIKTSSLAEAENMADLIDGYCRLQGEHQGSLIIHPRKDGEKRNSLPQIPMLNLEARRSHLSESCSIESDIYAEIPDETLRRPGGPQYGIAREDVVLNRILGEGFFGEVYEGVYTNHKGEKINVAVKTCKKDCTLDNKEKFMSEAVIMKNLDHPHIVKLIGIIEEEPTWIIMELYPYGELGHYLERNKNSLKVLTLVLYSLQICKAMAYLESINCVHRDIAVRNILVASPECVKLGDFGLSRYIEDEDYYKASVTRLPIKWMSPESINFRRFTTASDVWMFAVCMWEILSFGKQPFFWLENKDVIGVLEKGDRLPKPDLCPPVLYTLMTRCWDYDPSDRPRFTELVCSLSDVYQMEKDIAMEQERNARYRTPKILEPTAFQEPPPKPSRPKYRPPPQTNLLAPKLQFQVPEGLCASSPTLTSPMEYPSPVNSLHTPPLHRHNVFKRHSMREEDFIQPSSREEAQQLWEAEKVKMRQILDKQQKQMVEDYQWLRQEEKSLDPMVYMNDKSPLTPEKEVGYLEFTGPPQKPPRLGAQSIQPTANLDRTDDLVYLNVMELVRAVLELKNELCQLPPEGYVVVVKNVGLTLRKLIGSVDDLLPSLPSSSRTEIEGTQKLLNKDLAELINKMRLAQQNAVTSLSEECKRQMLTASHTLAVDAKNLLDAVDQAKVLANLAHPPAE
T36 sequence (Q9UHD2 whole entry): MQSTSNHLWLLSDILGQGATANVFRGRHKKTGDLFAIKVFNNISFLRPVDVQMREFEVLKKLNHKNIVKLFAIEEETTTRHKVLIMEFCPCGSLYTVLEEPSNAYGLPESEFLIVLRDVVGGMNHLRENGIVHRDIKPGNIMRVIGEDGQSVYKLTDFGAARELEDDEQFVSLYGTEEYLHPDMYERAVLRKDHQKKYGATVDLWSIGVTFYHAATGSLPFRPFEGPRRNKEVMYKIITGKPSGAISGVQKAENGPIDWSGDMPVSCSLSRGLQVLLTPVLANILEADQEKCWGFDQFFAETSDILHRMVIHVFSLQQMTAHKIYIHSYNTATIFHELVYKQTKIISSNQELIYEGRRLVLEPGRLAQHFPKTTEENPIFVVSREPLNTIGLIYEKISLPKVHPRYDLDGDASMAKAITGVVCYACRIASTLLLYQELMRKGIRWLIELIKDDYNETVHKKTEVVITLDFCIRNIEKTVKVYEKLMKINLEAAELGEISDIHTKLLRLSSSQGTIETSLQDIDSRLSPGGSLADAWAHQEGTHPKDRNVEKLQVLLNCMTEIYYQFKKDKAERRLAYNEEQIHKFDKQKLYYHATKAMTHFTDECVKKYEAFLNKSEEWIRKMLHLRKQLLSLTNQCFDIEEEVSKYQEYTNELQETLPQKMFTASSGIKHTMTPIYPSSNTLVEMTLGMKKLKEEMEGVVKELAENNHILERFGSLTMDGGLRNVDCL
T41 sequence (Q15418 whole entry): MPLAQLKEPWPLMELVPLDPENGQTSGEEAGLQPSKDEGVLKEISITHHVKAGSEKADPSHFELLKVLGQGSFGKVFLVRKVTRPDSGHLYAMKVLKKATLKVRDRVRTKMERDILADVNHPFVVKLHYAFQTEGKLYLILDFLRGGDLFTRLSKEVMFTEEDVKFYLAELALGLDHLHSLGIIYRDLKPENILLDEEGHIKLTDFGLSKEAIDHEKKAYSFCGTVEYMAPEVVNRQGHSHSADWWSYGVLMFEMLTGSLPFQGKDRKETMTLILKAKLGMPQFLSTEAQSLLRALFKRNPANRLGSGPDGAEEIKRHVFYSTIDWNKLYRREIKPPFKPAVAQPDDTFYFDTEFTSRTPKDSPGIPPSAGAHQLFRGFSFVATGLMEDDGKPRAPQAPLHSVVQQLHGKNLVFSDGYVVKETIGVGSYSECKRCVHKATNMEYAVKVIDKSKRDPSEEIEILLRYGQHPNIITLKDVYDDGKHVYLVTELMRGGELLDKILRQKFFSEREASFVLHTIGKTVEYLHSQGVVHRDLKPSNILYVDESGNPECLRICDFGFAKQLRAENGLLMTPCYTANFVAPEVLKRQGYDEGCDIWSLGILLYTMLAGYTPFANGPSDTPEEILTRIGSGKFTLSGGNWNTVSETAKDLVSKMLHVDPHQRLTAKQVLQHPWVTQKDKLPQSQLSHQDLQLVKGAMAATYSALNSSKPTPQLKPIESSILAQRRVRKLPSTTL
T29 sequence (P34947 whole entry): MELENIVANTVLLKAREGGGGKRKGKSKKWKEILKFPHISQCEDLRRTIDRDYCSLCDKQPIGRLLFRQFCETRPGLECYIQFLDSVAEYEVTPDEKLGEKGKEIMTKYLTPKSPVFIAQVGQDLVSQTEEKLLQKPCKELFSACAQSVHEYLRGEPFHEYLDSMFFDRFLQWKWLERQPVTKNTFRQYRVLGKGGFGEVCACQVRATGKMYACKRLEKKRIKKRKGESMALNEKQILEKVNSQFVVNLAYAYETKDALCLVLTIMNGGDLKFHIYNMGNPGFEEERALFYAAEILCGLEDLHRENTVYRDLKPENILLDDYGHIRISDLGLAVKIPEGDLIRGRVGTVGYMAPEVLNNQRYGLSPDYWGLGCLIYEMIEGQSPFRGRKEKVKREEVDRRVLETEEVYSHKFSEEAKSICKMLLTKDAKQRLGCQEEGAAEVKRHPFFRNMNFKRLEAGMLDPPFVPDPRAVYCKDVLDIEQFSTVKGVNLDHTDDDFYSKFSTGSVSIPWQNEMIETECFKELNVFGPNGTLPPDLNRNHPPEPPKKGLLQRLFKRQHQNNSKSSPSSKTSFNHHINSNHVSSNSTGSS
T28 sequence (Q8TDC3 whole entry): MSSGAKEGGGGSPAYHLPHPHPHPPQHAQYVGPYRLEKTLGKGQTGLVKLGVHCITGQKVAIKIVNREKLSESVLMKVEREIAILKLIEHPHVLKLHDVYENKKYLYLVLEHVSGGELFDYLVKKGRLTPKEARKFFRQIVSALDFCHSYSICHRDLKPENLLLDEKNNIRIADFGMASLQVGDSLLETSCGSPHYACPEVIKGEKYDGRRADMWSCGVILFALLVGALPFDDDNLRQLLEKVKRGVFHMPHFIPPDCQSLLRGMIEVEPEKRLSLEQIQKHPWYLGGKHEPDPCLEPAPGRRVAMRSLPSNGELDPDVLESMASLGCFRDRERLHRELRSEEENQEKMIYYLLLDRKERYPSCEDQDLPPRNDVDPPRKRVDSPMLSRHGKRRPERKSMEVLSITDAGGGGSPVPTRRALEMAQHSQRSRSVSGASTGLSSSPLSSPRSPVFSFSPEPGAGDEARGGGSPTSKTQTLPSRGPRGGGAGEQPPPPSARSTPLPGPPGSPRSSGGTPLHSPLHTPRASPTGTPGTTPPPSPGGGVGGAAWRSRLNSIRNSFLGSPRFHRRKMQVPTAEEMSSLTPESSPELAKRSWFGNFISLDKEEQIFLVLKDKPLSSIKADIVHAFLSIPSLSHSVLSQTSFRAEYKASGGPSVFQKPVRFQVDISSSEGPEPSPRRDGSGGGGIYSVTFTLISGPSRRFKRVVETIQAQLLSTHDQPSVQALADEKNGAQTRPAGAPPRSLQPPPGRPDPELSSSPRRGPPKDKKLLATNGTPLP
T32 sequence (P52333 whole entry): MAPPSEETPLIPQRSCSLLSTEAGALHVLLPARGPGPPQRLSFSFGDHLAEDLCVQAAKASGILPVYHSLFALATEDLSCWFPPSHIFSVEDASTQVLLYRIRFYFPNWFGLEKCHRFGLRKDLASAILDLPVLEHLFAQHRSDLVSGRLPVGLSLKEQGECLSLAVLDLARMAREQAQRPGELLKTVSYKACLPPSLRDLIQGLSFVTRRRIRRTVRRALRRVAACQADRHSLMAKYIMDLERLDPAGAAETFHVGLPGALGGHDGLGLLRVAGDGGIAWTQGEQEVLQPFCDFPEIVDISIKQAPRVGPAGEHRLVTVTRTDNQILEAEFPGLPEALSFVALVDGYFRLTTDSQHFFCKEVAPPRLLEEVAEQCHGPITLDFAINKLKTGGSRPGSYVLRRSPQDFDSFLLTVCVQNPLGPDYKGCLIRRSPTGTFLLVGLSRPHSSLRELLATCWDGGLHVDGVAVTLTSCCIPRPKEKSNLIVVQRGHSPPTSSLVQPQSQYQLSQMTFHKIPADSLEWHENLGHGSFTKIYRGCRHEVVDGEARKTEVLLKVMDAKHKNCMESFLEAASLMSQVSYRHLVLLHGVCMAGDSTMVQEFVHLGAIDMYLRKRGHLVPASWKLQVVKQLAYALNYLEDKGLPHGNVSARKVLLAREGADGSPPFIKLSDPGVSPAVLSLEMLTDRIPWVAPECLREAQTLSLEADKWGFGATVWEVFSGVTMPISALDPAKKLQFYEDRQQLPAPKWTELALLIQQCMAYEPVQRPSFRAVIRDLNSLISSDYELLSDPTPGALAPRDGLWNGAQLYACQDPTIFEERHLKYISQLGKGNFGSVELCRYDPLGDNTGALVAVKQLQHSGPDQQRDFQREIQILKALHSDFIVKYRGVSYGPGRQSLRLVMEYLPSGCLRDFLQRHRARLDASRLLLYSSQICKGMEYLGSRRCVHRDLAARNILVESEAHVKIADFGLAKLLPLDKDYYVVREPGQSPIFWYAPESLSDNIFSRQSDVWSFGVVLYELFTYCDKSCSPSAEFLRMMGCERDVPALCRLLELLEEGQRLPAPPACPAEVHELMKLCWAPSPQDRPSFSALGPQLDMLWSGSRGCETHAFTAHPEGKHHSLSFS

- Avg POC [1]: 132 POC
- Avg POC [2]: 212 POC
- Avg POC [3]: 109.5 POC
- Avg POC [4]: 132 POC
- Avg POC [5]: 126.5 POC
- Avg POC [6]: 101 POC
- Avg POC [7]: 122.5 POC
- Avg POC [8]: 105.5 POC
- Avg POC [9]: 122 POC
- Avg POC [10]: 134 POC
- Avg POC [11]: 135 POC
- Avg POC [12]: 143.5 POC
- Avg POC [13]: 112.5 POC
- Avg POC [14]: 106 POC
- Avg POC [15]: 135 POC
- Avg POC [16]: 107 POC
- Avg POC [17]: 131 POC
- Avg POC [18]: 125 POC
- Avg POC [19]: 120.5 POC
- Avg POC [20]: 121 POC
- Avg POC [21]: 145.5 POC
- Avg POC [22]: 104.5 POC
- Avg POC [23]: 89.5 POC
- Avg POC [24]: 117.5 POC
- Avg POC [25]: 138.5 POC
- Avg POC [26]: 124.5 POC
- Avg POC [27]: 122.5 POC
- Avg POC [28]: 118 POC
- Avg POC [29]: 108 POC
- Avg POC [30]: 132 POC
- Avg POC [31]: 117.5 POC
- Avg POC [32]: 131.5 POC
- Avg POC [33]: 127.5 POC
- Avg POC [34]: 111.5 POC
- Avg POC [35]: 134 POC
- Avg POC [36]: 121.5 POC
- Avg POC [37]: 105.5 POC
- Avg POC [38]: 102 POC
- Avg POC [39]: 103.5 POC
- Avg POC [40]: 164.5 POC
- Avg POC [41]: 226.5 POC
- Avg POC [42]: 123.5 POC
Compound: COCc1ccc2cccc(NC(=O)Nc3c(C)c(-c4cnn(C)c4)nn3-c3ccccc3)c2c1 [Example 16, 1-(1′,4-dimethyl-1-phenyl-1H,1′H-[3,4′-bipyrazol]-5-yl)-3-(7-(methoxymethyl)naphthalen-1-yl)urea]
